This passage reports GI50 results from US20260062422A1 (Halda Therapeutics OpCo, Inc., priority 2022, published 2026).

Experiment [1] concerns T-Rex 293 cell line SC3 cells having increased expression of androgen receptor protein due to exposure to doxycycline. Briefly: Cellular growth inhibition, T-Rex 293 SC3 cells with doxycycline (androgen receptor induced), CellTiter-Glo. The format is cell-based. The conditions noted are these: 72 h, T-Rex 293 SC3 cells with 10 ng/mL doxycycline (increased androgen receptor expression). A digest of the protocol: (§1)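 Doxycycline-inducible androgen receptor T-Rex 293 clone SC3, seeded at 2500/well in phenol red-free DMEM with 10% charcoal-dextran FBS, without doxycycline or with 10 ng/mL to induce receptor. Compound added after 24 h (0.5% DMSO), 72 h at 37 °C; CellTiter-Glo 2.0 luminescence, GI50 by four-parameter fit.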

The subject of experiment [2] is T-Rex 293 cell line SC3 cells lacking increased expression of androgen receptor protein. Briefly: Cellular growth inhibition, T-Rex 293 SC3 cells without doxycycline, CellTiter-Glo. Format: cell-based. The conditions noted are these: 72 h, T-Rex 293 SC3 cells not exposed to doxycycline, CellTiter-Glo 2.0. A digest of the protocol:
as §1

A further experiment deals with VCaP cells. The experiment can be described thus: Cellular growth inhibition assay for VCaP cells, CellTiter-Glo. The following applies: Homo sapiens, VCaP, 72 h, 72 hours treatment, CellTiter-Glo 2.0. Format: cell-based, human. The method, boiled down:
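GI50 values come from four-parameter curve fits of luminescence data normalized to a zero baseline. Compound, in medium with 0.5% DMSO, was added one day after plating and left for 72 h before CellTiter-Glo 2.0 addition.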

For a further experiment, the system named is T47D cells. The experiment can be described thus: Cellular growth inhibition assay for T47D cells, CellTiter-Glo. Format: cell-based, human. The conditions noted are these: Homo sapiens, T47D, 72 h, 72 hours treatment, CellTiter-Glo 2.0 cell viability. A digest of the protocol: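 Cells are plated at 3000/well and allowed 24 h before treatment. Test compound in medium containing 0.5% DMSO is then added, with DMSO-only wells as negative control, and plates are incubated 72 h at 37 °C. ATP luminescence (CellTiter-Glo 2.0) is then fitted to four parameters to derive GI50.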

The structures appear in SMILES notation. A value given as a limit tells only on which side of the number the result lay.

In the case of `Cc1sc2c(c1C)C(c1ccc(C3CCC4(CC3)CCN(c3ncc(C(=O)N[C@H]5C(C)(C)[C@H](Oc6ccc(C#N)c(Cl)c6)C5(C)C)cn3)C4)cc1)=N[C@@H](Cc1ncco1)c1nnc(C)n1-2` [Compound I-671, N-[3-(3-chloro-4-cyano-phenoxy)-2,2,4,4-tetramethyl-cyclobutyl]-2-[8-[4-[(9S)-4,5,13-trimethyl-9-(oxazol-2-ylmethyl)-3-thia-1,8,11,12-tetrazatricyclo[8.3.0.02,6]trideca-2(6),4,7,10,12-pentaen-7-yl]phenyl]-2-azaspiro[4.5]decan-2-yl]pyrimidine-5-carboxamide], the 50% growth inhibitory concentration (GI50) (in experiment [1]; in experiment [2]; in the experiment with VCaP cells; in the experiment with T47D cells) was less than 500 nM in each case.

As for `Cc1sc2c(c1C)C(c1ccc(CN(C)C(=O)[C@@H]3CC[C@@H](c4ncc(C(=O)N[C@H]5C(C)(C)[C@H](Oc6ccc(C#N)c(Cl)c6)C5(C)C)cn4)C3)cc1)=N[C@@H](Cc1ncco1)c1nnc(C)n1-2` [Compound I-372], the 50% growth inhibitory concentration (GI50) is less than 500 nM in experiment [1], more than 3000 nM in experiment [2], less than 500 nM in the experiment on VCaP cells and 500 to 1500 nM in the experiment with T47D cells.

Regarding `Cc1sc2c(c1C)C(c1ccc(O[C@H]3CC[C@@]4(CCN(c5ncc(C(=O)N[C@H]6C(C)(C)[C@H](Oc7ccc(C#N)c(Cl)c7)C6(C)C)cn5)C4)C3)cc1)=N[C@@H](Cc1ncco1)c1nnc(C)n1-2` [Compound I-176], the GI50 was less than 500 nM in experiment [1], 500 to 1500 nM in experiment [2], less than 500 nM with VCaP cells and less than 500 nM in the experiment on T47D cells.

As to `Cc1sc2c(c1C)C(c1ccc(O[C@H]3CCC4(CCCN(c5ncc(C(=O)N[C@H]6C(C)(C)[C@H](Oc7ccc(C#N)c(Cl)c7)C6(C)C)cn5)C4)C3)cc1)=N[C@@H](Cc1ncco1)c1nnc(C)n1-2` (some centres unmarked) [Compound I-200], the GI50 was less than 500 nM in experiment [1], 500 to 1500 nM in experiment [2], less than 500 nM in the experiment on VCaP cells and 500 to 1500 nM in the experiment on T47D cells.

Turning to `Cc1sc2c(c1C)C(c1ccc(OC3CC4(CCN(c5ncc(C(=O)N[C@H]6C(C)(C)[C@H](Oc7ccc(C#N)c(Cl)c7)C6(C)C)cn5)CC4)C3)c(F)c1)=N[C@@H](Cc1ncco1)c1nnc(C)n1-2` [Compound I-456], the 50% growth inhibitory concentration (GI50) in experiment [1] is less than 500 nM; in experiment [2], more than 3000 nM; with VCaP cells, 1500 to 3000 nM; in the experiment on T47D cells, more than 3000 nM.

For `Cc1sc2c(c1C)C(c1ccc(O[C@@H]3COC4(CCN(c5ncc(C(=O)N[C@H]6C(C)(C)[C@H](Oc7ccc(C#N)c(Cl)c7)C6(C)C)cn5)C4)C3)cc1)=N[C@@H](Cc1ncco1)c1nnc(C)n1-2` (some centres unmarked) [Compound I-185], the GI50 (in experiment [1]; in experiment [2]; in the experiment with VCaP cells; in the experiment with T47D cells) was less than 500 nM in each case.

For the compound `Cc1sc2c(c1C)C(c1ccc([C@@H]3CCCN(c4ncc(C(=O)N[C@H]5C(C)(C)[C@H](Oc6ccc(C#N)c(Cl)c6)C5(C)C)cn4)C3)cc1)=N[C@@H](Cc1ncco1)c1nnc(C)n1-2` [Compound I-295], the 50% growth inhibitory concentration (GI50) (in experiment [1]; in experiment [2]; in the experiment on VCaP cells; in the experiment with T47D cells) was less than 500 nM each time.

Take `Cc1sc2c(c1C)C(c1ccc(OCC[C@H]3CCCN(c4ncc(C(=O)N[C@H]5C(C)(C)[C@H](Oc6ccc(C#N)c(Cl)c6)C5(C)C)cn4)C3)cc1)=N[C@@H](Cc1ncco1)c1nnc(C)n1-2` [Compound I-301]: the concentration for 50% growth inhibition (GI50) in experiment [1] is less than 500 nM; in experiment [2] it was 500 to 1500 nM; in the experiment on VCaP cells, less than 500 nM; in the experiment with T47D cells, less than 500 nM.

For `Cc1sc2c(c1C)C(c1ccc(C(=O)N3CCN(C(=O)c4ncc(C(=O)N[C@H]5C(C)(C)[C@H](Oc6ccc(C#N)c(Cl)c6)C5(C)C)cn4)CC3)cc1)=N[C@H](Cc1ncco1)c1nnc(C)n1-2` [Compound I-286], the 50% growth inhibitory concentration (GI50) is 500 to 1500 nM in experiment [1], more than 3000 nM in experiment [2], more than 3000 nM with VCaP cells and more than 3000 nM in the experiment on T47D cells.

`Cc1sc2c(c1C)C(c1ccc(N3CC[C@@H](CNc4ncc(C(=O)N[C@H]5C(C)(C)[C@H](Oc6ccc(C#N)c(Cl)c6)C5(C)C)cn4)C3)cc1)=NC(Cc1ncco1)c1nnc(C)n1-2` (some centres unmarked) [Compound I-648]: the GI50 (in experiment [1]; in experiment [2]; in the experiment on VCaP cells; in the experiment on T47D cells) was less than 500 nM each time.

For the compound `Cc1sc2c(c1C)C(c1ccc([C@H]3C[C@H]([C@@H]4CCN(c5ncc(C(=O)N[C@H]6C(C)(C)[C@H](Oc7ccc(C#N)c(Cl)c7)C6(C)C)cn5)C4)C3)cc1)=N[C@@H](Cc1ncco1)c1nnc(C)n1-2` [Compound I-414], the GI50 (in experiment [1]; in experiment [2]; in the experiment on VCaP cells; in the experiment on T47D cells) was more than 3000 nM each time.

Turning to `Cc1sc2c(c1C)C(c1ccc(C#C[C@H]3C[C@@]4(CCCN(c5ncc(C(=O)N[C@H]6C(C)(C)[C@H](Oc7ccc(C#N)c(Cl)c7)C6(C)C)cn5)C4)C3)cc1)=N[C@@H](Cc1ncco1)c1nnc(C)n1-2` [Compound I-268], the GI50 is less than 500 nM in experiment [1], more than 3000 nM in experiment [2], 1500 to 3000 nM in the experiment on VCaP cells and 500 to 1500 nM in the experiment on T47D cells.

As for `COCC[C@@H]1N=C(c2ccc(OC3CC4(C3)CC3(CCN(c5ncc(C(=O)N[C@H]6C(C)(C)[C@H](Oc7ccc(C#N)c(Cl)c7)C6(C)C)cn5)CC3)C4)cc2)c2c(sc(C)c2C)-n2c(C)nnc21` [Compound I-584], the GI50 in experiment [1] is less than 500 nM; in experiment [2], more than 3000 nM; with VCaP cells it was less than 500 nM; in the experiment with T47D cells it was less than 500 nM.

In the case of `Cc1sc2c(c1C)C(c1ccc(C(=O)N3CC[C@]4(CCCN(c5ncc(C(=O)N[C@H]6C(C)(C)[C@H](Oc7ccc(C#N)c(Cl)c7)C6(C)C)cn5)C4)C3)cc1)=N[C@H](Cc1ncco1)c1nnc(C)n1-2` [Compound I-259], the GI50 in experiment [1] is less than 500 nM; in experiment [2] it was more than 3000 nM; in the experiment with VCaP cells it was 1500 to 3000 nM; in the experiment on T47D cells, 500 to 1500 nM.

`Cc1sc2c(c1C)C(c1ccc(C(=O)N3CCN(C(=O)c4ncc(C(=O)N[C@H]5C(C)(C)[C@H](Oc6ccc(C#N)c(Cl)c6)C5(C)C)cn4)CC3)cc1)=N[C@@H](Cc1ncco1)c1nnc(C)n1-2` [Compound I-285]: the 50% growth inhibitory concentration (GI50) (in experiment [1]; in experiment [2]; in the experiment on VCaP cells; in the experiment with T47D cells) was more than 3000 nM in each case.

Turning to `Cc1sc2c(c1C)C(c1ccc(NC3CCCN(c4ncc(C(=O)N[C@H]5C(C)(C)[C@H](Oc6ccc(C#N)c(Cl)c6)C5(C)C)cn4)CC3)cc1)=NC(Cc1ncco1)c1nnc(C)n1-2` (some centres unmarked) [Compound I-640], the GI50 is less than 500 nM in experiment [1], 500 to 1500 nM in experiment [2], less than 500 nM in the experiment on VCaP cells and less than 500 nM in the experiment with T47D cells.

As to `Cc1sc2c(c1C)C(c1ccc(Cl)cc1)=N[C@@H](CC(=O)NCCN1CCN(CC3CCN(c4ncc(C(=O)N[C@H]5C(C)(C)[C@H](Oc6ccc(C#N)c(Cl)c6)C5(C)C)cn4)CC3)CC1)c1nnc(C)n1-2` [Compound I-35, N-((1r,3r)-3-(3-chloro-4-cyanophenoxy)-2,2,4,4-tetramethylcyclobutyl)-2-(4-((4-(2-(2-((S)-4-(4-chlorophenyl)-2,3,9-trimethyl-6H-thieno[3,2-f][1,2,4]triazolo[4,3-a][1,4]diazepin-6-yl)acetamido)ethyl)piperazin-1-yl)methyl)piperidin-1-yl)pyrimidine-5-carboxamide], the GI50 in experiment [1] was 500 to 1500 nM; in experiment [2] it was 500 to 1500 nM; in the experiment on VCaP cells, 500 to 1500 nM; with T47D cells, less than 500 nM.
